Data as given in patent publication US12180226B2, “Spirotricycle RIPK1 inhibitors and methods of uses thereof” (Merck Sharp & Dohme LLC, priority 2021, dated 2024).
pEC50: −log10 of the molar value. Structures can show the parent of a compound that is named as a salt.

Target: RIPK1 (recombinant GST-RIPK1 kinase domain, residues 1-327) (Homo sapiens (Human), UniProt Q13546)
Assay: RIPK1-ADP-Glo Enzymatic Assay
Format: biochemical
Conditions: ADP-Glo; 25 nM GST-RIPK1, 300 μM ATP; assay lower limit ~25 nM; read-out: RIPK1 V0 Ec50
Procedure, shortened: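 Using dephosphorylated MBP (3 μM) as substrate and 300 μM ATP, 25 nM baculovirus-produced enzyme was reacted for 150 min after a 30-min compound pre-incubation. Luminescent ADP detection followed; lower confidence limit ~25 nM.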

Sequence of RIPK1 (recombinant GST-RIPK1 kinase domain, residues 1-327) (Q13546 1-327): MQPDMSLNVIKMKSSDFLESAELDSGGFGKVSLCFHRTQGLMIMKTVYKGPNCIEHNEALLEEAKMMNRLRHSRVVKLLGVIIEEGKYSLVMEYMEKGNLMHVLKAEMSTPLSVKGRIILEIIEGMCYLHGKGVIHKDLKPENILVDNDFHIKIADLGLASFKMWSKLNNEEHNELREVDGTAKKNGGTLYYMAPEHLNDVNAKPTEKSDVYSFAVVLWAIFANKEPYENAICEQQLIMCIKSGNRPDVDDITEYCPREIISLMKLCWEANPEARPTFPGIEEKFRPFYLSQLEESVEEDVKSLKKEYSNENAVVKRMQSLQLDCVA

Compared with Cn1cc([C@@H]2CC[C@H]3OC4(CCN(c5ccc(C#N)c6ncnn56)CC4)C(=O)N32)cn1 [Example 20.1, 5-((5′S,7a′R)-5′-(1-Methyl-1H-pyrazol-4-yl)-3′-oxotetrahydro-3′H-spiro[piperidine-4,2′-pyrrolo[2,1-b]oxazol]-1-yl)-[1,2,4]triazolo[1,5-a]pyridine-8-carbonitrile], N#Cc1cnn2c(N3CCC4(CC3)O[C@@H]3CC[C@@H](c5ccccc5)N3C4=O)ncnc12 [Example 4.218, 4-[(5′S,7a′R)-3′-oxo-5′-phenyltetrahydro-1H,3′H-spiro[piperidine-4,2′-pyrrolo[2,1-b] [1,3]oxazol]-1-yl]pyrazolo[1,5-a] [1,3,5]triazine-8-carbonitrile] is higher in pEC50: 7.34 for the first, over 7.60 for the second. The second is the more potent here.

O=C1N2[C@@H](CC[C@H]2c2cccc(F)c2)OC12CCN(c1ccnc3c(F)cnn13)CC2 [Example 4.129, (5′S,7a′R)-5′-(3-fluorophenyl)-1-(3-fluoropyrazolo[1,5-a]pyrimidin-7-yl)tetrahydro-3′H-spiro[piperidine-4,2′-pyrrolo[2,1-b] [1,3]oxazol]-3′-one] and O=C1N2[C@@H](CC[C@H]2c2cc(F)cc(F)c2)OC12CCN(c1nccn3nccc13)CC2 [Example 13.12, (5′S,7a′R)-5′-(3,5-difluorophenyl)-1-(pyrazolo[1,5-a]pyrazin-4-yl)tetrahydro-3′H-spiro[piperidine-4,2′-pyrrolo[2,1-b]oxazol]-3′-one, TFA salt] cannot be ordered by pEC50: over 7.60 for the first, over 7.60 for the second.

Going from O=C(c1c(F)cc(F)cc1F)N1CCC2(CC1)O[C@@H]1CC[C@@H](c3cc(F)cc(F)c3)N1C2=O [Example 5.2, (5′S,7a′R)-5′-(3,5-difluoro-phenyl)-1-(2,4,6-trifluoro-benzene-1-carbonyl)tetra-hydro-3′H-spiro[piperi-dine-4,2′-pyrrolo[2,1-b] [1,3]oxazol]-3′-one] to O=C(c1ccoc1C(F)(F)F)N1CCC2(CC1)O[C@@H]1CC[C@@H](c3cc(F)cc(F)c3)N1C2=O [Example 6.67, (5′S,7a′R)-5′-(3,5-difluorophenyl)-1-[2-(trifluoromethyl)-furan-3-carbonyl]-tetrahydro-3′H-spiro [piperidine-4,2′-pyrrolo[2,1-b][1,3]-oxazol]-3′-one], the pEC50 falls from over 7.60 to 7.30. The first is the more potent here.

First: CSc1cc(N2CCC3(CC2)O[C@@H]2CC[C@@H](c4ccccc4)N2C3=O)ncn1 [Example 4.27, (5′S,7a′R)-1-[6-(methylsulfanyl)pyrimidin-4-yl]-5′-phenyltetrahydro-3′H-spiro[piperidine-4,2′-pyrrolo[2,1-b] [1,3]oxazol]-3′-one]
Second: N#Cc1cc(N2CCC3(CC2)O[C@@H]2CC[C@@H](c4ccccc4)N2C3=O)ncn1 [Example 4.40, 6-[(5′S,7a′R)-3′-oxo-5′-phenyltetrahydro-1H,3′H-spiro[piperidine-4,2′-pyrrolo[2,1-b] [1,3]oxazol]-1-yl]pyrimidine-4-carbonitrile]
The pEC50 of the first is 0.25 log units higher: 7.74 for the first, 7.49 for the second.

First: O=C1N2[C@@H](CC[C@H]2c2ccccc2F)OC12CN(S(=O)(=O)c1ccc(F)cc1)C2 [Example 8.7, (5′S,7a′R)-5′-(2-fluorophenyl)-1-((4-fluorophenyl)sulfonyl) tetrahydro-3′H-spiro[azetidine-3,2′-pyrrolo[2,1-b]oxazol]-3′-one]
Second: O=C1N2[C@@H](CC[C@H]2c2ccccc2F)OC12CN(c1cc(Cl)ncn1)C2 [Example 4.107, (5′S,7a′R)-1-(6-chloropyrimidin-4-yl)-5′-(2-fluorophenyl)tetrahydro-3′H-spiro[azetidine-3,2′-pyrrolo[2,1-b]oxazol]-3′-one]
The pEC50 of the first is 0.54 log units lower: 6.46 for the first, 7.00 for the second. The second is the more potent here.

First: COc1cnc(N2CCC3(CC2)O[C@@H]2CC[C@@H](c4cc(F)cc(F)c4)N2C3=O)nc1 [Example 4.64, (5′S,7a′R)-5′-(3,5-difluorophenyl)-1-(5-methoxypyrimidin-2-yl)tetrahydro-3′H-spiro[piperidine-4,2′-pyrrolo[2,1-b] [1,3]oxazol]-3′-one]
Second: O=C1N2[C@@H](CC[C@H]2c2cc(F)cc(F)c2)OC12CCN(c1nccc3nccn13)CC2 [Example 4.82, (5′S,7a′R)-5′-(3,5-difluorophenyl)-1-(imidazo[1,2-c]pyrimidin-5-yl)tetrahydro-3′H-spiro[piperidine-4,2′-pyrrolo[2,1-b]oxazol]-3′-one, TFA salt]
The pEC50 of the first is 0.51 log units lower: 7.09 for the first, 7.60 for the second.

Compared with O=C1N2[C@@H](CC[C@H]2c2ccccc2F)OC12CCN(c1ccnc(Cl)c1)CC2 [Example 4.268, (5′S,7a′R)-1-(2-chloropyridin-4-yl)-5′-(2-fluorophenyl)tetrahydro-3′H-spiro[piperidine-4,2′-pyrrolo[2,1-b] [1,3]oxazol]-3′-one], O=C1N2[C@@H](CC[C@H]2c2ccccc2)OC12CCN(c1ncccc1Cl)CC2 [Example 4.256, (5′S,7a′R)-1-(3-chloropyridin-2-yl)-5′-phenyltetrahydro-3′H-spiro[piperidine-4,2′-pyrrolo[2,1-b] [1,3]oxazol]-3′-one] is lower in pEC50: over 7.60 for the first, 7.60 for the second. The first is the more potent here.

Compared with N#Cc1ccc(N2CCC3(CC2)O[C@@H]2CC[C@@H](c4ccccc4)N2C3=O)n2ncc(-c3ncco3)c12 [Example 4.181, 3-(1,3-oxazol-2-yl)-7-[(5′S,7a′R)-3′-oxo-5′-phenyltetrahydro-1H,3′H-spiro[piperidine-4,2′-pyrrolo[2,1-b] [1,3]oxazol]-1-yl]pyrazolo[1,5-a] pyridine-4-carbonitrile], Cn1nc(C(F)(F)F)cc1-c1ccc(N2CCC3(CC2)O[C@@H]2CC[C@@H](c4ccccc4)N2C3=O)n2ncnc12 [Example 21.20, (5′S,7a′R)-1-{8-[1-methyl-3-(trifluoromethyl)-1H-pyrazol-5-yl][1,2,4]triazolo[1,5-a]pyridin-5-yl}-5′-phenyltetrahydro-3′H-spiro[piperidine-4,2′-pyrrolo[2,1-b][l,3]oxazol]-3′-one] is higher in pEC50: 6.96 for the first, over 7.60 for the second. The second is the more potent here.

Going from O=C(c1cnnc2ccccc12)N1CCC2(CC1)O[C@@H]1CC[C@@H](c3cc(F)cc(F)c3)N1C2=O [Example 6.58, (5′S,7a′R)-1-(cinn-oline-4-carbonyl)-5′-(3,5-difluorophenyl) tetrahydro-3′H-spiro [piperidine-4,2′-pyrrolo[2,1-b][1,3]-oxazol]-3'-one] to O=C(c1coc2ccccc12)N1CCC2(CC1)O[C@@H]1CC[C@@H](c3cc(F)cc(F)c3)N1C2=O [Example 5.70], the pEC50 rises from 6.58 to over 7.60.

Going from O=C(c1cn2ccccc2n1)N1CCC2(CC1)O[C@@H]1CC[C@@H](c3cc(F)cc(F)c3)N1C2=O [Example 5.71, (5′S,7a′R)-5′-(3,5-difluoro-phenyl)-1-(imidazo[1,2-a]-pyridine-2-carbonyl)tetra-hydro-3′H-spiro[piperidine-4,2′-pyrrolo[2,1-b]oxazol]-3′-one] to O=C(c1ccc(Br)cn1)N1CCC2(CC1)O[C@@H]1CC[C@@H](c3cc(F)cc(F)c3)N1C2=O [Example 6.100, (5′S,7a′R)-1-(5-bromo-pyridine-2-carbonyl)-5′-(3,5-difluorophen-yl)tetrahydro-3′H-spiro[piperidine-4,2′-pyrrolo[2,1-b][1,3]-oxazol]-3′-one], the pEC50 rises from 6.81 to 7.18 (0.37 log units).

Going from O=C1N2[C@@H](CC[C@H]2c2ccccc2)OC12CCN(c1cc(-n3ccnc3)ccn1)CC2 [Example 11.21, (5′S,7a′R)-1-[4-(1H-imidazol-1-yl)pyridin-2-yl]-5′-phenyltetrahydro-3′H-spiro[piperidine-4,2′-pyrrolo[2,1-b][1,3]oxazol]-3′-one] to O=C1N2[C@@H](CC[C@H]2c2ccccc2)OC12CCN(c1cc(C3CC3)ccn1)CC2 [Example 11.22, (5′S,7a′R)-1-(4-cyclopropylpyridin-2-yl)-5′-phenyltetrahydro-3′H-spiro[piperidine-4,2′-pyrrolo[2,1-b][1,3]oxazol]-3′-one], the pEC50 falls from 6.64 to 6.12 (0.52 log units).

Going from Cc1cc(N2CCC3(CC2)O[C@@H]2CC[C@@H](c4ccccc4)N2C3=O)ncc1[N+](=O)[O-] [Example 4.207, (5′S,7a′R)-1-(4-methyl-5-nitropyridin-2-yl)-5′-phenyltetrahydro-3′H-spiro[piperidine-4,2′-pyrrolo[2,1-b] [1,3]oxazol]-3′-one] to COC(=O)c1cc(C)c(N2CCC3(CC2)O[C@@H]2CC[C@@H](c4ccccc4)N2C3=O)nc1C#N [Example 4.188, methyl 2-cyano-5-methyl-6-[(5′S,7a′R)-3′-oxo-5′-phenyltetrahydro-1H,3′H-spiro[piperidine-4,2′-pyrrolo[2,1-b] [1,3]oxazol]-1-yl]pyridine-3-carboxylate], the pEC50 falls from over 7.60 to 6.27.

Compared with O=C(c1ccccc1)N1CCC2(CC1)O[C@@H]1CC[C@@H](c3cnsc3)N1C2=O [Example 17.7, (5′S,7a′R)-1-benzoyl-5′-(isothiazol-4-yl)tetrahydro-3′H-spiro[piperidine-4,2′-pyrrolo[2,1-b]oxazol]-3′-one], O=C1N2[C@@H](CC[C@H]2c2cc(F)cc(F)c2)OC12CCN(c1ncnn3cccc13)CC2 [Example 13.11, (5′S,7a′R)-5′-(3,5-difluorophenyl)-1-(pyrrolo [2,1-f][1,2,4]triazin-4-yl)tetrahydro-3′H-spiro[piperidine-4,2′-pyrrolo[2,1-b]oxazol]-3′-one, TFA salt] is higher in pEC50: 6.25 for the first, over 7.60 for the second. The second is the more potent here.

Compared with CC1CN(c2ccnc3ccnn23)CCC12O[C@@H]1CC[C@@H](c3ccccc3)N1C2=O (stereo partly drawn) [Example 4.246, (4R,5′S,7a′R)-3-methyl-5′-phenyl-1-(pyrazolo[1,5-a]pyrimidin-7-yl)tetrahydro-3′H-spiro[piperidine-4,2′-pyrrolo[2,1-b] [1,3]oxazol]-3′-one], O=C1N2[C@@H](CC[C@H]2c2ccccc2F)OC12CN(c1ccnc(-c3cnn(C(F)F)c3)c1)C2 [Example 4.138, (5′S,7a′R)-1-{2-[1-(difluoromethyl)-1H-pyrazol-4-yl]pyridin-4-yl}-5′-(2-fluorophenyl)tetrahydro-3′H-spiro[azetidine-3,2′-pyrrolo[2,1-b] [1,3]oxazol]-3′-one] is lower in pEC50: over 7.60 for the first, 6.84 for the second. The first is the more potent here.
